Here are results for 1 compound from paper PMC5124248, “Antitumor activity of TY-011 against gastric cancer by inhibiting Aurora A, Aurora B and VEGFR2 kinases” (Journal of Experimental & Clinical Cancer Research : CR, 2016).

As usually defined, the IC50 is the concentration at which inhibition is half-maximal.

Molecules are shown by their SMILES. Like-named read-outs stand apart in the source and are kept apart here.

Assay [1] concerns HUVECs. As to the kind of experiment: HUVEC growth inhibition, 6 h, CCK-8. It is filed as cell-based, human. The conditions noted are these: various concentrations. As to the method: (§1) During the logarithmic growth phase, each cell line was seeded in a 96-well tissue culture plate (Thermo Fisher Scientific, Waltham, MA, USA) at a predetermined density in complete medium, attached overnight and treated with compound for the indicated time. The medium was discarded and replaced with 10% CCK-8 (Dojindo, Kumamoto, Japan) in complete medium, then incubated the plates for another 2 h. The OD450 was measured with SpectraMax M5 (Molecular Devices, CA, USA). A background absorbance of ODblank was subtracted from all wells. The survival rate was determined with following formula: Survival rate (%) = ODcompound/ODDMSO × 100%. The IC50 values were calculated by concentration − response curve fitting using the four parameter method.

In assay [2] the test system is SGC-7901 cells. As to the kind of experiment: Cell cycle analysis by flow cytometry, SGC-7901. The format is cell-based, human. As to the method: (§2) Cell cycle distribution was determined by flow cytometry measurement of DNA content after cells were incubated with RNase A (50 μg/ml) and propidium iodide (50 μg/ml). The cellular DNA content was measured on a flow cytometer (Guava EasyCyte 6HT-2 L, Merck Millipore, Billerica, MA, USA). The percentage of each population was analyzed using the InCyte software. At least 20 000 cells were analyzed for each data point.

Assay [3] has as its system HUVECs. The assay can be described thus: VEGF- or FBS-induced HUVEC proliferation assay (CCK-8). The format is cell-based, human. As to conditions: for IC50: Homo sapiens, HUVEC. As to the method:
as §1
In VEGF-induced HUVEC proliferation assay, HUVECs cells were seeded in a 96-well tissue culture plate at a predetermined density in HUVEC basic medium with 0.5% FBS. After the cells attached, cells were treated with different concentration of TY-011 in the presence of 50 ng/ml VEGF165 (R&D systems, Minneapolis, MN, USA) or 10% FBS. The CCK-8 assay as above was used for determination of cell viability.

In the next assay the test system is MGC-803 cells. The assay can be described thus: Cell cycle analysis by flow cytometry, MGC-803. The format is cell-based, human. As to the method: as §2
The test system of a further assay is MKN-45 cells. The assay can be described thus: CCK-8 cell proliferation assay, MKN-45. The conditions noted are these: Homo sapiens; MKN-45, CCK-8, Fig. 3. The format is cell-based. The procedure: as §1
(In general: Formazan colour is commonly taken as a measure of viable cells.)

In assay [4] the test system is SGC-7901 cells. As to the kind of experiment: CCK-8 cell proliferation assay, SGC-7901. It is filed as cell-based. The conditions noted are these: Homo sapiens; SGC-7901, CCK-8, Fig. 3. As to the method:
as §1

In assay [5] the test system is 5 gastric cancer cell lines. The assay can be described thus: CCK-8 cell proliferation assay, panel of 5 gastric cancer cell lines. It is filed as cell-based. As to conditions: Homo sapiens; range over SNU-16, MKN-45, MGC-803, SGC-7901, AGS; read-out: IC50 values across 5 gastric cancer cell lines. As to the method:
as §1

For `CCc1cc2c(cn1)C(c1ccccc1Cl)=Nc1c(n[nH]c1C)N2` [TY-011, 9-(2-chloro-phenyl)-6-ephyl-1-methyl-2,4-dihydro-2,3,4,7,10-pentaaza-benzo[f]azulene], in the assay with HUVECs [1], the “HUVEC proliferation under tube formation treatment condition” value is recorded as “didn’t affect HUVEC proliferation”. The G2/M phase cells was 45.1% in the assay on SGC-7901 cells [2] (SGC-7901, 0.5 μM, 12 h (from 31.6%)) and 51.4% with MGC-803 cells (MGC-803, 0.2 μM, 12 h (from 26.4%)). In addition, the “cells with >4 N DNA content” value is given as 13.9% in the assay with SGC-7901 cells [2] (SGC-7901, 0.5 μM, 48 h) and 39.8% in the assay with MGC-803 cells (MGC-803, 0.2 μM, 48 h). Also, the “proportion of cells with >4 N DNA content” value with SGC-7901 cells [2] (SGC-7901, 1 μM, 24 h (6.7% no treatment)) is 14.7%; in the assay with MGC-803 cells (MGC-803, 0.4 μM, 24 h (4.3% no treatment)) it was 29.5%. The “proportion of G2/M phase cells” value in the assay with SGC-7901 cells [2] (SGC-7901, 1 μM, 24 h (34.0% no treatment)) was found to be 78.6%; in the assay on MGC-803 cells (MGC-803, 0.4 μM, 24 h (28.8% no treatment)), 65.0%. For the same compound, in the assay on HUVECs [3] (72 h), the “IC50 in cells treated with VEGF lower than in cells treated with FBS” value came out at 13 fold. Moreover, the half-maximal inhibitory concentration (IC50) in the assay on HUVECs [3] (50 ng/ml VEGF165, 72 h, read-out: VEGF IC50) was 461 ± 61.8 nM; in the assay with HUVECs [3] (10% FBS, 72 h, read-out: FBS IC50), 6100 ± 16.4 nM; in the assay with MKN-45 cells, 130 ± 10 nM; with SGC-7901 cells [4], 570 ± 30 nM; in assay [5], 90 to 960 nM.
